Legend:
Experiment in all cases: relative viability (nuclei count vs DMSO), 5 days (fraction); higher = more cells survive
Carfilzomib + Tozasertib = compound: CC(C)C[C@H](NC(=O)[C@H](CCc1ccccc1)NC(=O)CN1CCOCC1)C(=O)N[C@@H](Cc1ccccc1)C(=O)N[C@@H](CC(C)C)C(=O)[C@@]1(C)CO1 [Carfilzomib] + Cc1cc(Nc2cc(N3CCN(C)CC3)nc(Sc3ccc(NC(=O)C4CC4)cc3)n2)n[nH]1 [Tozasertib] (partner 0.1 µM)
How it was run: (§1)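 Relative viability equals treated-well nuclei counts divided by vehicle-well nuclei counts. Counts came from 4× images of lung cancer cell lines grown in 1536-well plates for 5 days after pin-tool dosing on the day after seeding. Dosing used one drug alone or a fixed anchor-drug dose plus five library-drug doses (not always all listed) in √10 steps, and values are medians of duplicate plates.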

Olaparib + Phenformin = compound: O=C(c1cc(Cc2n[nH]c(=O)c3ccccc23)ccc1F)N1CCN(C(=O)C2CC2)CC1 [Olaparib] + N=C(N)NC(=N)NCCc1ccccc1 [Phenformin] (partner 250 µM)
How it was run: as §1

Carfilzomib + Olaparib = compound: CC(C)C[C@H](NC(=O)[C@H](CCc1ccccc1)NC(=O)CN1CCOCC1)C(=O)N[C@@H](Cc1ccccc1)C(=O)N[C@@H](CC(C)C)C(=O)[C@@]1(C)CO1 [Carfilzomib] + O=C(c1cc(Cc2n[nH]c(=O)c3ccccc23)ccc1F)N1CCN(C(=O)C2CC2)CC1 [Olaparib] (partner 8 µM)
How it was run: as §1

Olaparib + Dasatinib = compound: O=C(c1cc(Cc2n[nH]c(=O)c3ccccc23)ccc1F)N1CCN(C(=O)C2CC2)CC1 [Olaparib] + Cc1nc(Nc2ncc(C(=O)Nc3c(C)cccc3Cl)s2)cc(N2CCN(CCO)CC2)n1 [Dasatinib] (partner 0.075 µM)
How it was run: as §1

Cell Line	relative viability (Carfilzomib + Tozasertib; first compound 0.001 µM)	relative viability (Carfilzomib + Tozasertib; first compound 0.003162 µM)	relative viability (Carfilzomib + Tozasertib; first compound 0.01 µM)	relative viability (Carfilzomib + Tozasertib; first compound 0.03162 µM)	relative viability (Carfilzomib + Tozasertib; first compound 0.1 µM)	relative viability (Olaparib + Phenformin; first compound 0.08 µM)	relative viability (Olaparib + Phenformin; first compound 0.253 µM)	relative viability (Olaparib + Phenformin; first compound 2.53 µM)	relative viability (Olaparib + Phenformin; first compound 8 µM)	relative viability (Carfilzomib + Olaparib; first compound 0.001 µM)	relative viability (Carfilzomib + Olaparib; first compound 0.003162 µM)	relative viability (Carfilzomib + Olaparib; first compound 0.01 µM)	relative viability (Carfilzomib + Olaparib; first compound 0.03162 µM)	relative viability (Carfilzomib + Olaparib; first compound 0.1 µM)	relative viability (Olaparib + Dasatinib; first compound 0.08 µM)	relative viability (Olaparib + Dasatinib; first compound 0.253 µM)	relative viability (Olaparib + Dasatinib; first compound 2.53 µM)	relative viability (Olaparib + Dasatinib; first compound 8 µM)
UMC-11	0.206	0.202	0.205	0.202	0.224	0.36	0.31	0.294	0.229	0.342	0.326	0.315	0.347	0.205	0.464	0.47	0.452	0.396
NCI-H1395	0.746	0.743	0.696	0.505	0.304	0.419	0.4	0.423	0.396	–	0.516	0.428	0.356	0.303	0.465	0.358	0.39	0.419
EMC-BAC-2	0.284	0.298	0.305	0.212	0.194	0.558	0.504	0.558	0.437	0.484	0.454	0.561	0.411	0.249	0.365	0.382	0.471	0.338
PC-3 [JPC-3]	0.859	0.926	0.901	0.866	0.374	0.486	0.458	0.481	0.423	1.17	1.16	1.18	0.652	0.301	1.08	0.902	1.01	0.895
NCI-H1734	0.275	0.289	0.266	0.153	0.0994	0.46	0.325	0.35	0.372	0.649	0.679	0.666	0.547	0.113	0.458	0.399	0.421	0.326
HOP-62	0.37	0.405	0.385	0.19	0.0741	0.783	0.644	0.762	0.478	0.399	0.397	0.443	–	0.0477	0.691	0.563	0.579	0.492
HARA	0.11	0.106	0.117	0.0557	0.0586	0.584	0.398	0.36	0.36	1.25	0.943	1.2	0.0637	0.0917	0.36	0.286	0.255	0.237
NCI-H2023	0.433	0.399	0.352	0.285	0.0853	0.466	0.36	0.391	0.359	0.484	0.521	0.486	0.133	0.0615	0.672	0.489	0.528	0.467
NCI-H1993	0.563	0.571	0.59	0.597	0.423	0.529	0.511	0.501	0.447	0.984	1.11	1.1	1.04	0.407	0.725	0.556	0.656	0.716
NCI-H460	0.363	0.51	0.48	0.512	0.0337	0.598	0.44	0.443	0.233	0.41	0.444	0.485	0.443	0.0304	0.471	0.464	0.32	0.178
NCI-H2342	0.495	0.473	0.579	0.543	0.385	0.577	0.503	0.544	0.598	0.424	0.541	0.499	0.497	0.317	0.293	0.262	0.312	0.293
NCI-H596	1.16	0.878	0.721	0.222	0.168	0.76	0.732	0.653	0.66	0.691	0.704	0.727	0.552	0.186	0.597	0.68	0.583	0.454
NCI-H522	0.491	0.6	0.653	0.349	0.346	0.665	0.722	0.582	0.562	0.586	0.778	0.694	0.489	0.314	0.913	0.884	0.846	0.782
NCI-H441	0.6	0.626	0.49	0.193	0.247	0.824	0.873	0.951	0.706	0.749	0.542	0.288	0.146	0.15	0.818	0.542	0.651	0.589
COR-L 105	0.328	0.311	0.411	0.263	0.225	0.535	0.42	0.479	0.418	0.704	0.735	0.716	0.465	0.301	0.34	0.403	0.356	0.288
NCI-H322M	0.473	0.52	0.556	0.433	0.337	0.937	0.815	0.81	0.635	0.748	0.681	0.771	0.798	0.439	0.251	0.231	0.248	0.252
HCC-827	0.366	0.397	0.47	0.411	0.265	0.361	0.372	0.398	0.35	0.671	0.619	0.712	0.643	0.108	0.27	0.315	0.387	0.281
